The source of these data is US9840500B2, “Compounds as dual inhibitors of histone methyltransferases and DNA methyltransferases” (FUNDACIÓN PARA LA INVESTIGACIÓN MÉDICA APLICADA, priority 2014, dated 2017).

Like-named read-outs stand apart in the source and are kept apart here.

In one assay the target is T1, human G9a enzyme (Homo sapiens, UniProt Q96KQ7).
T1 sequence (Q96KQ7 1-1210): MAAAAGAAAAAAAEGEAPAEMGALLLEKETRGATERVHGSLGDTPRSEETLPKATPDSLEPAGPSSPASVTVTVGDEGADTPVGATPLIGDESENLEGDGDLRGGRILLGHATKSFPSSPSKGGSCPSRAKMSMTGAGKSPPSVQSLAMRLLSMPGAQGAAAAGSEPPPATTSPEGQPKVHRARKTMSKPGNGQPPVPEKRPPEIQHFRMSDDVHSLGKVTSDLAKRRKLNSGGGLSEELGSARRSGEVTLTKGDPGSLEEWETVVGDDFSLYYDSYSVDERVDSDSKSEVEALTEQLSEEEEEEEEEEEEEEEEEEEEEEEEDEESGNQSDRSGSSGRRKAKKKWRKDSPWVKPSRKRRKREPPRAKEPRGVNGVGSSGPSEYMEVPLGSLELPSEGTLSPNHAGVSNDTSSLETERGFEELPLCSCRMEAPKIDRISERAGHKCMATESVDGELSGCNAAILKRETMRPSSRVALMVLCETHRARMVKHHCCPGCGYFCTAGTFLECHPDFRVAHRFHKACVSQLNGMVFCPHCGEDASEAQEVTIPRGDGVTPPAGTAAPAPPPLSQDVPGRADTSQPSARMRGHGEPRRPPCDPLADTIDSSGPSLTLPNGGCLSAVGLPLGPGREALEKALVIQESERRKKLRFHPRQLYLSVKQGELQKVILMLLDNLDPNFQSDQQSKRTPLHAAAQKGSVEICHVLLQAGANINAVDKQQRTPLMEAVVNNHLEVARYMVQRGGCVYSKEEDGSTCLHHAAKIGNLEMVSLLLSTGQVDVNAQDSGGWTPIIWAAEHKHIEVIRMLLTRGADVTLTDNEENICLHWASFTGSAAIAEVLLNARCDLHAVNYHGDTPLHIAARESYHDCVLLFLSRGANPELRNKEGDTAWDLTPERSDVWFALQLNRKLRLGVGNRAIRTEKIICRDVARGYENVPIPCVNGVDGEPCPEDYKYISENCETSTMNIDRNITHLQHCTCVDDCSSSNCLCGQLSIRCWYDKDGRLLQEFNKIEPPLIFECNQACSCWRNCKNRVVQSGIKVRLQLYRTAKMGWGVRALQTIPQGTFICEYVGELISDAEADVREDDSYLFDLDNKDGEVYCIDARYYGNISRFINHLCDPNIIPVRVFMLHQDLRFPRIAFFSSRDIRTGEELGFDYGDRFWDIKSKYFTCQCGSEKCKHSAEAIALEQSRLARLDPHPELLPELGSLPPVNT
The experiment in a line: G9a enzyme activity assay (TR-FRET). The class given is biochemical. Summed up:
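Sf9-expressed human G9a (added as 1 nM solution), 0.5% DMSO final, with streptavidin-XL665 at 16 μM final and europium cryptate donor. After 1 h at room temperature, the 665/620 nm ratio was read against vehicle and no-enzyme controls. IC50 from a 4-parameter inhibition fit.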
(In general: In TR-FRET formats the signal depends on donor and acceptor labels being close together.)

Assay [1] deals with T2, DNMT1 (Homo sapiens, UniProt P26358). The assay is described as follows: DNMT1 enzyme activity assay (TR-FRET, EPIgeneous methyltransferase assay). The class given is biochemical. Summed up:
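Human DNMT1, added at 1 nM, with 0.5% final DMSO; activity read by TR-FRET detection of the product SAH, where signal falls as SAH rises. The value is the 665/620 nm ratio, and IC50 comes from a 4-parameter inhibition fit.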
Target sequence in this assay (P26358 whole entry): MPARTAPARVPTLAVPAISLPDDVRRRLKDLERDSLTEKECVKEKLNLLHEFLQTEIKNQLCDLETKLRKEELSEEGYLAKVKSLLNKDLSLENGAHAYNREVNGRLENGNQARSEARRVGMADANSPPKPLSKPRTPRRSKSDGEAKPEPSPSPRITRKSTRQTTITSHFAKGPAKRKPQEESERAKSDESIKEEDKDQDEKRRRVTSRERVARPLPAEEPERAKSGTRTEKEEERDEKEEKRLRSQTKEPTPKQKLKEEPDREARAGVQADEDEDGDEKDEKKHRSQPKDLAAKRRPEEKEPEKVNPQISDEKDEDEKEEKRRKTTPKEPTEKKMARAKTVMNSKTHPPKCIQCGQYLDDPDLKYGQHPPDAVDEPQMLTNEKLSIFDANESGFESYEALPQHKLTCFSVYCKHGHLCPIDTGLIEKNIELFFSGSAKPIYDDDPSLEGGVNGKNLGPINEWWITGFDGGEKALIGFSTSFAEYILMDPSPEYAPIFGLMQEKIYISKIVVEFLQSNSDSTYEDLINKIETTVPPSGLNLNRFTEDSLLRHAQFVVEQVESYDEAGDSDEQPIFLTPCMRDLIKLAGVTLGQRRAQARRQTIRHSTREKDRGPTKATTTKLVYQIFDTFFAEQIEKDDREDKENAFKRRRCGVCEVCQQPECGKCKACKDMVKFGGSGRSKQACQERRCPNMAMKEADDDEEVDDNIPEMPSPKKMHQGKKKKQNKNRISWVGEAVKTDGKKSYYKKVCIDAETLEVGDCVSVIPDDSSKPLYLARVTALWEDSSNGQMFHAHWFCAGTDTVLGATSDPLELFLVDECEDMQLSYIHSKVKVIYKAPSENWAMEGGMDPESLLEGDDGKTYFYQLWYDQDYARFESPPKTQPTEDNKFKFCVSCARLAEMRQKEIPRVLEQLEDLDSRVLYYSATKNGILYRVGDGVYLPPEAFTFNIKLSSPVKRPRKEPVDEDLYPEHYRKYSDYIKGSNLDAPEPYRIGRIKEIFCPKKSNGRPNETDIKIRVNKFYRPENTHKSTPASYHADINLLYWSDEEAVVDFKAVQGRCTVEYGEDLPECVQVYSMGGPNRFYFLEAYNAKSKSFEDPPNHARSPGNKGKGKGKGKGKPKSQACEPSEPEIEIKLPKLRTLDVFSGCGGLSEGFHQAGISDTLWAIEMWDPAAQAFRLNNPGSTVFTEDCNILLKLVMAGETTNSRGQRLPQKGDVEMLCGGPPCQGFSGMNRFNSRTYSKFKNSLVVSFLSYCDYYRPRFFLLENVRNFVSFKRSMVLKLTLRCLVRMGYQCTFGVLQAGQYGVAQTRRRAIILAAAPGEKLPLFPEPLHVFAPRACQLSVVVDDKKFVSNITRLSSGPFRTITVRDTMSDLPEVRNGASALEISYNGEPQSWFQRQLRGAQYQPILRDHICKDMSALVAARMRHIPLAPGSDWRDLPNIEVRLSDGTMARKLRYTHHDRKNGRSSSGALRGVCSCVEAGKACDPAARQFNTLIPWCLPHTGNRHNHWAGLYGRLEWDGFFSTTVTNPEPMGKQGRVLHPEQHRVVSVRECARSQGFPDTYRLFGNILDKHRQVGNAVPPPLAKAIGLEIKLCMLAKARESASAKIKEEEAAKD

Another assay concerns CEMO-1. The assay is described as follows: Cell proliferation assay, CEMO-1 (ALL). The assay is classed as cell-based, human. As to the method:
(§1) Cell proliferation was analyzed after 48 hours of in vitro treatment using the CellTiter 96 Aqueous One Solution Cell Proliferation Assay (Promega, Madison, Wis.). This is a colorimetric method for determining the number of viable cells in proliferation.
(§2) For the assay, suspension cells were cultured by triplicate at a density of 1×10^6 cells/ml in 96-well plates (100.000 cells/well, 100 μl/well), except for OCILY-3 and OCILY-10 cell lines which were cultured at a density of 0.5×10^6 cells/ml (50.000 cells/well, 100 μl/well) and for HepG2, Hep3B and PLC/PRF/5 cell ines which were cultured at a density of 3000 cells/well, 100 μl/well). Adherent cells were obtained from 80-90% confluent flasks and 100 μl of cells were seeded at a density of 5000 cells/well in 96-well plates by triplicate. Before addition of the compounds, adherent cells were allowed to attach to the bottom of the wells for 12 hours. In all cases, only the 60 inner wells were used to avoid any border effects.
(§3) After 48 hours of treatment, plates with suspension cells were centrifuged at 800 g for 10 minutes and medium was removed. The plates with adherent cells were flicked to remove medium. Then, cells were incubated with 100 ul/well of medium and 20 ul/well of CellTiter 96 Aqueous One Solution reagent. After 1-3 hours of incubation at 37° C., absorbance was measured at 490 nm in a 96-well plate reader. The background absorbance was measured in wells with only cell line medium and solution reagent. Data was calculated as a percentage of total absorbance of treated cell/absorbance of non treated cells.

In the next assay the test system is OCI-Ly3. The assay is described as follows: Cell proliferation assay, OCI-Ly3 (ABC-DLBCL). The assay is classed as cell-based. To be noted: Homo sapiens, 48 hours of treatment, Table 3. As for the experimental part: as §1, §2, §3
A further assay relates to OCI-Ly10. The assay is described as follows: Cell proliferation assay, OCI-Ly10 (ABC-DLBCL). The assay is classed as cell-based. To be noted: Homo sapiens, 48 hours of treatment, Table 3. As to the method: as §1, §2, §3
A further assay relates to HepG2. The experiment in a line: Cell proliferation assay, HepG2 (HCC). The assay is classed as cell-based. Particulars: Homo sapiens, 48 hours of treatment, Table 3. As to the method:
as §1, §2, §3

A further assay has as its system Hep3B. The assay is described as follows: Cell proliferation assay, Hep3B (HCC). The assay is classed as cell-based. Particulars: Homo sapiens, 48 hours of treatment, Table 3. As to the method:
as §1, §2, §3

For another assay, the system named is PLC/PRF/5. The assay is described as follows: Cell proliferation assay, PLC/PRF/5 (HCC). The assay is classed as cell-based. To be noted: Homo sapiens, 48 hours of treatment, Table 3. As to the method:
as §1, §2, §3

A further assay has as its system LAL-CUN-2. The experiment in a line: Cell proliferation assay, LAL-CUN-2 (ALL). The assay is classed as cell-based. To be noted: ALL; Table 5 comparison. As for the experimental part: as §1, §2, §3
The test system of the next assay is OCI-AML-2. The experiment in a line: Cell proliferation assay, OCI-AML-2 (AML). The class given is cell-based. As for the experimental part:
as §1, §2, §3
(§4) Compounds 3-04 and 3-07 were tested against different solid tumour and oncohematological cell lines using the cell proliferation protocol described above.

A further assay relates to MV411. The experiment in a line: Cell proliferation assay, MV411 / MV4-11 (AML). The assay is classed as cell-based. As for the experimental part:
as §1, §2, §3, §4

For another assay, the system named is JJN3. The assay is described as follows: Cell proliferation assay, JJN3 (MM). The class given is cell-based. As to the method:
as §1, §2, §3

Another assay has as its system U266. The experiment in a line: Cell proliferation assay, U266 (MM). The assay is classed as cell-based. As to the method: as §1, §2, §3
In assay [2] the target is T2, DNMT1. Particulars: reported in the literature (Vedadi 2011; Liu 2013); read-out: IC50 against DNMT1; cited from earlier work.
Target sequence in this assay (P26358 whole entry, species assumed): as the sequence (P26358 whole entry) above
Setting [3] is: Homo sapiens, 48 hours of treatment, Table 3.

`CCc1ccc(-c2cc(NCC3CCN(C4CC4)CC3)c3cc(OC)c(OCCCN4CCCC4)cc3n2)o1` [Compound 3-49]: the IC50 at human G9a enzyme and on DNMT1 [1] was 100 to 500 nM in each case. Also, the GI50 (as a rule, the concentration at which growth is held to half of that of the control) with CEMO-1 (setting [3]) is 100 to 1000 nM; with OCI-Ly3 it was below 100 nM; in the assay with OCI-Ly10 it was 100 to 1000 nM; in the assay on HepG2, 100 to 1000 nM; in the assay on Hep3B, 100 to 1000 nM; in the assay with PLC/PRF/5 it was 100 to 1000 nM.
As for `CCc1ccc(-c2cc(NC3CC4CCC(C3)N4C)c3cc(OC)c(OCCCN4CCCC4)cc3n2)o1` (stereo not drawn) [Compound 3-50], the values for the IC50 on human G9a enzyme and on DNMT1 [1] were below 100 nM and 100 to 500 nM, respectively. The GI50 was 100 to 1000 nM with CEMO-1 (setting [3]); 100 to 1000 nM in the assay with OCI-Ly3; 1000 to 10000 nM with OCI-Ly10; 1000 to 10000 nM in the assay with HepG2; 1000 to 10000 nM with Hep3B; 100 to 1000 nM in the assay with PLC/PRF/5.
For `CCc1ccc(-c2cc(NC3C4CCC3CN(C)C4)c3cc(OC)c(OCCCN4CCCC4)cc3n2)o1` (stereo not drawn) [Compound 3-51], the IC50 – broadly, the concentration needed to halve the response being measured – at human G9a enzyme was below 100 nM; on DNMT1 [1], 100 to 500 nM. Moreover, the GI50 lay in the range of 100 to 1000 nM in the assay with CEMO-1 (setting [3]); 1000 to 10000 nM in the assay on OCI-Ly3; 100 to 1000 nM in the assay with OCI-Ly10; 100 to 1000 nM in the assay on HepG2; 100 to 1000 nM with Hep3B; 100 to 1000 nM with PLC/PRF/5.
As for `CCc1ccc(-c2cc(NC3CC4(CCN(C)CC4)C3)c3cc(OC)c(OCCCN4CCCC4)cc3n2)o1` [Compound 5-06, 2-(5-ethyl-2-furyl)-6-methoxy-N-(7-methyl-7-azaspiro[3.5]nonan-2-yl)-7-(3-pyrrolidin-1-ylpropoxy)quinolin-4-amine; 2,2,2-trifluoroacetic acid], the values for the IC50 at human G9a enzyme and on DNMT1 [1] were below 100 nM and 100 to 500 nM, respectively. The GI50 with CEMO-1 (setting [3]), in the assay on OCI-Ly3, in the assay on OCI-Ly10, in the assay with HepG2, in the assay on Hep3B and in the assay with PLC/PRF/5 was 100 to 1000 nM each time.
On to `Nc1ncn([C@H]2C[C@H](O)[C@@H](CO)O2)c(=O)n1` [Decitabine, reference compound], for which the GI50 in the assay on CEMO-1 (ALL, Table 5 comparison) was 100 to 1000 nM; in the assay with LAL-CUN-2 it was at least 10 µM; in the assay on OCI-AML-2 (Table 5 comparison) it was at least 10 µM; with MV411 (Table 5 comparison) it was at least 10 µM; with JJN3 (Table 5 comparison), at least 10 µM; in the assay on U266 (Table 5 comparison), at least 10 µM.
Consider `COc1cc2c(NC3CCN(C(C)C)CC3)nc(C3CCCCC3)nc2cc1OCCCN1CCCC1` [UNC0638, 2-cyclohexyl-N-(1-isopropyl-4-piperidyl)-6-methoxy-7-(3-pyrrolidin-1-ylpropoxy)quinazolin-4-amine, reference compound], for which the GI50 with CEMO-1 (Homo sapiens, ALL, Table 5 comparison) was 1000 to 10000 nM; in the assay on LAL-CUN-2, 1 to 10 µM; in the assay with OCI-AML-2 (Homo sapiens, OCI-AML2, Table 5 comparison), 1 to 10 µM; with MV411 (Homo sapiens, MV4-11, Table 5 comparison), at least 10 µM; in the assay with JJN3 (Homo sapiens, JJN-3, Table 5 comparison), at least 10 µM; with U266 (Homo sapiens, U-266, Table 5 comparison), at least 10 µM.
As to `COc1cc2c(NC3CCN(C(C)C)CC3)nc(N3CCC(F)(F)CC3)nc2cc1OCCCN1CCCC1` [UNC0642, 2-(4,4-difluoro-1-piperidyl)-N-(1-isopropyl-4-piperidyl)-6-methoxy-7-(3-pyrrolidin-1-ylpropoxy)quinazolin-4-amine], at DNMT1 [2], the IC50 was above 50 µM.
